Measurements: patent publication US12391737B2, “Soluble NPY2 receptor agonists” (Boehringer Ingelheim International GmbH, priority 2020, dated 2025)

What was measured:
[1] = biological target: T1, Human Neuropeptide Y2 Receptor (Homo sapiens, UniProt P49146); test: Radioligand binding competition assay (RLB); details: Table 3, 125I-PYY(1-36) competition; read-out: Ki
T1 construct: purchased CHEMICON HTS066M
T1 sequence (P49146 1-381): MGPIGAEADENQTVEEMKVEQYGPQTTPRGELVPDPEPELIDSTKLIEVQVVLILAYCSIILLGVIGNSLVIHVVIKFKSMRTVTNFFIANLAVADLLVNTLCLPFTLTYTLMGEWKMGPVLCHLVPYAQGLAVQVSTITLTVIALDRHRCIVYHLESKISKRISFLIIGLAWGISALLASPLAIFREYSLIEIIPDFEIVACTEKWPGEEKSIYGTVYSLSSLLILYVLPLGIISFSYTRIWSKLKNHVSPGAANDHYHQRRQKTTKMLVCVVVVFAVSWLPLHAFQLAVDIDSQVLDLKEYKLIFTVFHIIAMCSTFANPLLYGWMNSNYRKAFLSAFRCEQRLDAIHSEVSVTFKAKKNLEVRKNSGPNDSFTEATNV
Experimental: The filtration RLB assay was carried out in 96-well plates in a final volume of 100 μl per well. Freeze-dried test peptides were dissolved in 100% dimethyl sulfoxide (DMSO) to stock solutions of 1 mM and serial dilutions were performed in assay buffer (50 mM HEPES, 5 mM MgCl2, 1 mM CaCl2, pH 7.4) containing 0.2% ovalbumin. […] Next, 80 μL membranes (HTS066M, ChemiSCREEN™ Human Neuropeptide Y2 Receptor Membrane Preparation, CHEMICON) were added to each well to give a final protein concentration of 0.5 μg/well. The plates were sealed and incubated at room temperature for 2 hours in a plate shaker set at 400 rpm. The incubation was stopped by vacuum filtration onto 0.5% polyethylene amine (PE) presoaked GF/C filters using a 96-well FilterMate™ harvester (Perkin Elmer) followed by four washes with 300 μl/well ice-cold wash buffer (50 mM HEPES, 500 mM NaCl, pH7.4). Filter plates were then dried for 60 min at room temperature and the bottom of the plates was sealed with backing tape UniFilter-96. Finally, 50 μl/well scintillation counter cocktail (Microscint20, Packard) was added and the radioactivity was counted in the Packard TopCount NXT scintillation counter. IC50 values (the half maximal inhibitory concentration of the agonist) were calculated by nonlinear regression analysis of sigmoidal dose-response curves.

Solubility determination = details: for Sol6: pH 6; for Sol7: pH 7
Experimental: Peptides (as TFA salts) were weighed out in a filter unit (Mini-UniPrep Syringeless Filter 0.45 μm, Whatman), and 0.1 M sodium diphosphate buffer at pH 6.4 or 7.0 was added to achieve 10 mg/ml final concentration. The peptide was dissolved by shaking the filter unit horizontally at 600 rpm for 2 hours at room temperature. The sample was filtered, to remove any insoluble particles and diluted to 1 mg/ml in 50% acetonitrile. The control was prepared by weighing out the corresponding peptide and dissolving it in 50% acetonitrile to final concentration of 1 mg/ml. Both the control and sample were analysed with reversed phase chromatography. The area under the peak of the sample was compared to the control and the solubility was calculated based on that ratio.
The pH was measured and recorded for each sample.
System: UltiMate 3000 UPLC, ThermoFisher
Mobile phase A: 5% acetonitrile, 95% water, 0.03% trifluoracetic acid.
Mobile phase B: 95% acetonitrile, 5% water, 0.03% trifluoracetic acid.
Gradient: 0-100% mobile phase B (2 mins.)
Column temperature: 50° C.

Compound | Ki [1] [nM] | Sol6 (Solubility determination) [mg/mL] | Sol7 (Solubility determination) [mg/mL]
CC(C)CC(=O)N[C@@H](C)C(=O)N1CCC[C@H]1C(=O)N[C@@H](C)C(=O)N[C@@H](CCCCNC(=O)CCCCCNC(=O)CC[C@H](NC(=O)CCCCCCCCCCCCCCCCC(=O)O)C(=O)O)C(=O)N1CCC[C@H]1C(=O)N[C@@H](CCC(=O)O)C(=O)N[C@@H](CCC(=O)O)C(=O)N[C@@H](CCC(=O)O)C(=O)N[C@@H](C)C(=O)N[C@@H](CO)C(=O)N1CCC[C@H]1C(=O)N[C@@H](CCC(=O)O)C(=O)N[C@@H](CCC(=O)O)C(=O)N[C@@H](CC(C)C)C(=O)N[C@@H](CCC(N)=O)C(=O)N[C@@H](CCCNC(=N)N)C(=O)N[C@@H](Cc1ccc(O)cc1)C(=O)N[C@@H](Cc1ccc(O)cc1)C(=O)N[C@H](C(=O)N[C@@H](CO)C(=O)N[C@@H](CC(C)C)C(=O)N[C@@H](CCCNC(=N)N)C(=O)N[C@@H](Cc1c[nH]cn1)C(=O)N[C@@H](Cc1ccc(O)cc1)C(=O)N[C@@H](Cc1ccc(O)cc1)C(=O)N[C@@H](CC(N)=O)C(=O)N[C@@H](Cc1c[nH]c2ccccc12)C(=O)N[C@@H](CC(C)C)C(=O)N[C@H](C(=O)N[C@@H](CCCNC(=N)N)C(=O)N[C@@H](CCC(N)=O)C(=O)N[C@@H](CCCNC(=N)N)C(=O)N[C@@H](Cc1ccc(O)cc1)C(N)=O)[C@@H](C)O)C(C)C [Compound 199, N{alpha-4}-(3-methylbutanoyl)-N{epsilon-7}-(6-[(4S)-4-carboxy-4-(17-carboxyheptadecanamido)butanamido]hexanoyl)-[4A,6A,7K,9E,11E,18Q,22V,28Y,30W,31L]-hPYY(4-36)] | 2.87 | 9.0 | 9.1
CC(C)CC(=O)N[C@@H](C)C(=O)N1CCC[C@H]1C(=O)N[C@@H](CCC(=O)O)C(=O)N[C@@H](CCCCNC(=O)CCCCCNC(=O)CC[C@H](NC(=O)CCCCCCCCCCCCCCCCC(=O)O)C(=O)O)C(=O)N1CCC[C@H]1C(=O)N[C@@H](CCC(=O)O)C(=O)N[C@@H](CCC(=O)O)C(=O)N[C@@H](CC(=O)O)C(=O)N[C@@H](C)C(=O)N[C@H](C(=O)N1CCC[C@H]1C(=O)N[C@@H](CCC(=O)O)C(=O)N[C@@H](CCC(=O)O)C(=O)N[C@@H](CC(C)C)C(=O)N[C@@H](CCC(N)=O)C(=O)N[C@@H](CCCNC(=N)N)C(=O)N[C@@H](Cc1ccc(O)cc1)C(=O)N[C@@H](Cc1ccc(O)cc1)C(=O)N[C@H](C(=O)N[C@@H](CO)C(=O)N[C@@H](CC(C)C)C(=O)N[C@@H](CCCNC(=N)N)C(=O)N[C@@H](Cc1c[nH]cn1)C(=O)N[C@@H](Cc1ccc(O)cc1)C(=O)N[C@@H](Cc1ccc(O)cc1)C(=O)N[C@@H](CC(N)=O)C(=O)N[C@@H](Cc1c[nH]c2ccccc12)C(=O)N[C@@H](CC(C)C)C(=O)N[C@H](C(=O)N[C@@H](CCCNC(=N)N)C(=O)N[C@@H](CCC(N)=O)C(=O)N[C@@H](CCCNC(=N)N)C(=O)N[C@@H](Cc1ccc(O)cc1)C(N)=O)[C@@H](C)O)C(C)C)[C@@H](C)O [Compound 173, N{alpha-4}-(3-methylbutanoyl)-N{epsilon-7}-(6-[(4S)-4-carboxy-4-(17-carboxyheptadecanamido)butanamido]hexanoyl)-[4A,7K,9E,13T,18Q,22V,28Y,30W,31L]-hPYY(4-36)] | 4.07 | 9.2 | 9.6
CC(C)CC(=O)N[C@@H](C)C(=O)N1CCC[C@H]1C(=O)N[C@@H](CCC(=O)O)C(=O)N[C@@H](CCCCNC(=O)CCCCCNC(=O)CC[C@H](NC(=O)CCCCCCCCCCCCCCCCC(=O)O)C(=O)O)C(=O)N1CCC[C@H]1C(=O)N[C@@H](CCC(=O)O)C(=O)N[C@@H](CCC(=O)O)C(=O)N[C@@H](CC(=O)O)C(=O)N[C@@H](CCC(N)=O)C(=O)N[C@H](C(=O)N1CCC[C@H]1C(=O)N[C@@H](CCC(=O)O)C(=O)N[C@@H](CCC(=O)O)C(=O)N[C@@H](CC(C)C)C(=O)N[C@@H](CCC(N)=O)C(=O)N[C@@H](CCCNC(=N)N)C(=O)N[C@@H](Cc1ccc(O)cc1)C(=O)N[C@@H](Cc1ccc(O)cc1)C(=O)N[C@H](C(=O)N[C@@H](CO)C(=O)N[C@@H](CC(C)C)C(=O)N[C@@H](CCCNC(=N)N)C(=O)N[C@@H](Cc1c[nH]cn1)C(=O)N[C@@H](Cc1ccc(O)cc1)C(=O)N[C@@H](Cc1ccc(O)cc1)C(=O)N[C@@H](CC(N)=O)C(=O)N[C@@H](Cc1c[nH]c2ccccc12)C(=O)N[C@@H](CC(C)C)C(=O)N[C@H](C(=O)N[C@@H](CCCNC(=N)N)C(=O)N[C@@H](CCC(N)=O)C(=O)N[C@@H](CCCNC(=N)N)C(=O)N[C@@H](Cc1ccc(O)cc1)C(N)=O)[C@@H](C)O)C(C)C)[C@@H](C)O [Compound 144, N{alpha-4}-(3-methylbutanoyl)-N{epsilon-7}-(6-[(4S)-4-carboxy-4-(17-carboxyheptadecanamido)butanamido]hexanoyl)-[4A,7K,9E,12Q,13T,18Q,22V,28Y,30W,31L]-hPYY(4-36)] | 9.76 | 9.7 | 9.6
CC(C)CC(=O)N[C@@H](C)C(=O)N1CCC[C@H]1C(=O)N[C@@H](CCC(=O)O)C(=O)N[C@@H](CCCCNC(=O)CCCCCNC(=O)CC[C@H](NC(=O)CCCCCCCCCCCCCCCCC(=O)O)C(=O)O)C(=O)N1CCC[C@H]1C(=O)N[C@@H](CCC(=O)O)C(=O)N[C@@H](CCC(=O)O)C(=O)N[C@@H](CC(=O)O)C(=O)N[C@@H](C)C(=O)N[C@H](C(=O)N1CCC[C@H]1C(=O)N[C@@H](CCC(=O)O)C(=O)N[C@@H](CCC(=O)O)C(=O)N[C@@H](CO)C(=O)N[C@@H](CCC(N)=O)C(=O)N[C@@H](CCCNC(=N)N)C(=O)N[C@@H](Cc1ccc(O)cc1)C(=O)N[C@@H](Cc1ccc(O)cc1)C(=O)N[C@H](C(=O)N[C@@H](CO)C(=O)N[C@@H](CC(C)C)C(=O)N[C@@H](CCCNC(=N)N)C(=O)N[C@@H](Cc1c[nH]cn1)C(=O)N[C@@H](Cc1ccc(O)cc1)C(=O)N[C@@H](Cc1ccc(O)cc1)C(=O)N[C@@H](CC(N)=O)C(=O)N[C@@H](Cc1c[nH]c2ccccc12)C(=O)N[C@@H](CC(C)C)C(=O)N[C@H](C(=O)N[C@@H](CCCNC(=N)N)C(=O)N[C@@H](CCC(N)=O)C(=O)N[C@@H](CCCNC(=N)N)C(=O)N[C@@H](Cc1ccc(O)cc1)C(N)=O)[C@@H](C)O)C(C)C)[C@@H](C)O [Compound 119, N{alpha-4}-(3-methylbutanoyl)-N{epsilon-7}-(6-[(4S)-4-carboxy-4-(17-carboxyheptadecanamido)butanamido]hexanoyl)-[4A,7K,9E,13T,17S,18Q,22V,28Y,30W,31L]-hPYY(4-36)] | 5.73 | 9.3 | 9.1
CC(C)CC(=O)N[C@@H](C)C(=O)N1CCC[C@H]1C(=O)N[C@@H](CCC(=O)O)C(=O)N[C@@H](CCCCNC(=O)CCCCCNC(=O)CC[C@H](NC(=O)CCCCCCCCCCCCCCCCC(=O)O)C(=O)O)C(=O)N1CCC[C@H]1C(=O)N[C@@H](CCC(=O)O)C(=O)N[C@@H](C)C(=O)N[C@@H](C)C(=O)N[C@@H](C)C(=O)N[C@@H](CCC(=O)O)C(=O)N1CCC[C@H]1C(=O)N[C@@H](CCC(=O)O)C(=O)N[C@@H](CCC(=O)O)C(=O)N[C@@H](CC(C)C)C(=O)N[C@@H](CCC(N)=O)C(=O)N[C@@H](CCCNC(=N)N)C(=O)N[C@@H](Cc1ccc(O)cc1)C(=O)N[C@@H](Cc1ccc(O)cc1)C(=O)N[C@H](C(=O)N[C@@H](C)C(=O)N[C@@H](CC(C)C)C(=O)N[C@@H](CCCNC(=N)N)C(=O)N[C@@H](Cc1c[nH]cn1)C(=O)N[C@@H](Cc1ccc(O)cc1)C(=O)N[C@@H](Cc1ccc(O)cc1)C(=O)N[C@@H](CC(N)=O)C(=O)N[C@@H](Cc1c[nH]c2ccccc12)C(=O)N[C@@H](CC(C)C)C(=O)N[C@H](C(=O)N[C@@H](CCCNC(=N)N)C(=O)N[C@@H](CCC(N)=O)C(=O)N[C@@H](CCCNC(=N)N)C(=O)N[C@@H](Cc1ccc(O)cc1)C(N)=O)[C@@H](C)O)C(C)C [Compound 127, N{alpha-4}-(3-methylbutanoyl)-N{epsilon-7}-(6-[(4S)-4-carboxy-4-(17-carboxyheptadecanamido)butanamido]hexanoyl)-[4A,7K,9E,10A,11A,13E,18Q,22V,23A,28Y,30W,31L]-hPYY(4-36)] | 3.36 | 6.5 | >10.0
